Experiments:
[1] = biological target: Voltage-gated inwardly rectifying potassium channel KCNH2 (Homo sapiens, UniProt Q12809); experiment: Inhibition of hERG potassium channel by patch clamp assay; type: toxicity
[2] = biological target: Glucagon-like peptide 1 receptor (Homo sapiens, UniProt P43220); experiment: Agonist activity at human GLP-1 expressed in HEK293 cells assessed as […] in intracellular cAMP accumulation incubated for 60 mins by HTRF assay; type: functional, cell-based
Glucagon-like peptide 1 receptor, sequence (P43220 whole entry): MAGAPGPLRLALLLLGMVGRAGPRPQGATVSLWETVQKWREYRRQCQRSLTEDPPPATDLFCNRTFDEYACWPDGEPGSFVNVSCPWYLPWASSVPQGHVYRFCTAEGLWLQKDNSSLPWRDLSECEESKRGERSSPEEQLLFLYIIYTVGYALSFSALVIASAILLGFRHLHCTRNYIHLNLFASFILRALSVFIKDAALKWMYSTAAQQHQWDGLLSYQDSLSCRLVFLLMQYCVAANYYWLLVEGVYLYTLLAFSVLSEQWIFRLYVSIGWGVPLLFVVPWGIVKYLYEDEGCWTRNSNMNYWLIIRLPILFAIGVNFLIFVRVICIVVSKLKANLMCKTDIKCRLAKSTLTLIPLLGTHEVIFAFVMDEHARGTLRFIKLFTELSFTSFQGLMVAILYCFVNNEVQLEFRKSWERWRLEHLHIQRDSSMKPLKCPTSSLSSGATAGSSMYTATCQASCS

Voltage-gated inwardly rectifying potassium channel KCNH2, sequence (Q12809 whole entry): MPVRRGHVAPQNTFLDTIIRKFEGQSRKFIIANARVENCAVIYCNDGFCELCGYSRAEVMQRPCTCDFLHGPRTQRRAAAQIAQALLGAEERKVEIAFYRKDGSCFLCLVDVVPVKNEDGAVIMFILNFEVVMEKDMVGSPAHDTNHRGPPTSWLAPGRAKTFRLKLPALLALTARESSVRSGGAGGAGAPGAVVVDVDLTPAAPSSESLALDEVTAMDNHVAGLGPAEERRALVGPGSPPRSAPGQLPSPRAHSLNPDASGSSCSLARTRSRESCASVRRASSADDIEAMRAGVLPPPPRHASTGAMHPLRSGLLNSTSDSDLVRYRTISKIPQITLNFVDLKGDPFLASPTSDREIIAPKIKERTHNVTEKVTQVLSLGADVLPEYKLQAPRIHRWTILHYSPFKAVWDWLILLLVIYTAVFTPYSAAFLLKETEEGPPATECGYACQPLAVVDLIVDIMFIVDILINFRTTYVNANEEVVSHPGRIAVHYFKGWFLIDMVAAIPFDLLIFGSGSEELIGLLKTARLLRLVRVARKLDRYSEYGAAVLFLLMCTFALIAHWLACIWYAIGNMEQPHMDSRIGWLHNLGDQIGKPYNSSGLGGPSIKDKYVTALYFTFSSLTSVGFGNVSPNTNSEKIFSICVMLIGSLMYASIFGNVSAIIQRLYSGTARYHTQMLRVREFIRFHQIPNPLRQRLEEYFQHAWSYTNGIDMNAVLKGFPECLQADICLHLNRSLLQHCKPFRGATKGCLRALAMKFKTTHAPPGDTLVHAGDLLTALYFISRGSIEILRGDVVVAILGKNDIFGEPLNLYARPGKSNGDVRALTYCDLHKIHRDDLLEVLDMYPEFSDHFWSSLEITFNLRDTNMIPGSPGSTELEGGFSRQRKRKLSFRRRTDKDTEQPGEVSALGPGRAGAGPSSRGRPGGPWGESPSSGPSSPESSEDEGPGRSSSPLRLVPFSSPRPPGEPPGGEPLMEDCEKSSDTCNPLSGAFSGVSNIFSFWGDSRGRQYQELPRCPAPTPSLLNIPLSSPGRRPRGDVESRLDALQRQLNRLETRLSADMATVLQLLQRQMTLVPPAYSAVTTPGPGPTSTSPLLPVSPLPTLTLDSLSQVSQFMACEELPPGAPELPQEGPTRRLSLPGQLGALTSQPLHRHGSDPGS

Row | EC50 [2] [nM] | Compound | EC50 [1] [nM]
1 | – | Cn1c(CN2CCC(c3cccc(OCc4ccc(Cl)cc4F)n3)CC2)nc2ccncc21 | 77
2 | 2.7 | COc1nccc(-c2ccc3c(c2)cc(C(=O)N2CCc4nn(-c5cc(C)c(F)c(C)c5)c(-n5ccn(-c6ccc7c(cnn7C)c6F)c5=O)c4[C@@H]2C)n3[C@@]2(c3noc(=O)[nH]3)C[C@@H]2C)c1C | –
3 | 2.1 | COCCn1ncc2c(F)c(-n3ccn(-c4c5c(nn4-c4cc(C)c(F)c(C)c4)CCN(C(=O)c4cc6cc([C@H]7CCOC(C)(C)C7)ccc6n4[C@@]4(c6noc(=O)[nH]6)C[C@@H]4C)[C@H]5C)c3=O)ccc21 | –
